Reference: patent US20130131161A1, “METHODS AND COMPOSITIONS FOR CARDIOVASCULAR DISEASES AND CONDITIONS” (priority 2009, published 2013)

Tested on: Human umbilical vein endothelial cells (HUVECs)
Test: eNOS activity analysis: NO, ONOO− and NO/ONOO− release from HUVECs of 50 genotyped donors in response to LA-419 (Example 2)
Format: cell-based
Conditions: for % Change ONOO− (mean ± sd) / % Change NO (mean ± sd) / % Change NO/ONOO− (mean ± sd): LA-419 5 μM vs control; for Fold difference NO production / Fold difference NO/ONOO− ratio: LA-419 5 μM/control; for % Change Ratio, % Change NO/% Change ONOO− (mean ± sd) / Net increase over control NO (mean ± sd) / Net increase over control NO/ONOO− (mean ± sd) / Net increase over control ONOO− (mean ± sd) / Peak release NO (mean ± sd) / Peak release NO/ONOO− (mean ± sd) / Peak release ONOO− (mean ± sd): LA-419 5 μM
Method: Concurrent measurements of NO and ONOO^− were carried out with tandem electrochemical nanosensors combined into one working unit with a total diameter of 200-500 nm (FIG. 1). Their design was based on previously developed and well-characterized chemically modified carbon-fiber technology (Malinski and Taha, 1992; Lvovich and Scheeline, 1997). Each of the nanosensors was made by depositing a sensing material on the tip of a carbon fiber (length 4-5 μm, diameter 0.2-0.5 μm). The fibers were sealed with nonconductive epoxy and electrically connected to copper wires with conductive silver epoxy. A conductive film of polymeric nickel (II) tetrakis(3-methoxy-4-hydroxyphenyl)porphyrin for the NO-sensor and polymeric film of Mn (III) [2.2]paracyclophanylporphyrin was used for the ONOO^−-sensor.
A module of NO/ONOO^− nanosensors (diameter 1-2 μm) with a platinum wire (0.1 mm) counter electrode and saturated calomel reference electrode (SCE) were applied. Differential pulse voltammetry (DPV) and amperometry were performed with a computer-based Gamry VFP600 multichannel potentiostat. DPV was used to measure the basal NO and ONOO^− concentrations, and amperometry was used to measure changes in NO and ONOO^− concentrations from its basal level with time. The DPV current at the peak potential characteristic for NO oxidation (0.65 V) and ONOO^− reduction (−0.45 V) was directly proportional to the local concentrations of these compounds in the immediate vicinity of the sensor. Linear calibration curves (current vs. concentration) were constructed for each sensor from 10 nM to 3 μM before and after measurements with aliquots of NO and ONOO^− standard solutions, respectively. The detection limit of the sensors was 1.0 nM.
The quantification of each analyte (concentration in nM) was performed using a maximum current from amperograms and standard calibration curves. A reproducibility of measurements with nanosensors is relatively high (between 5-12%). […] The sensors were slowly raised 5±2 μm from the surface of a single endothelial cell. The eNOS agonist, calcium ionophore A23187 (CaI) as well as the different drugs were then added to the surrounding media at the cell surface with a nanoinjector that was also positioned by a computer controlled-micromanipulator.
This example describes the genotype-specific response of the three major eNOS variants to 1 μM and 5 μM concentrations of LA-419. The three major genetic polymorphisms studied were the Glu298Asp variant (E298D or 894G→T) in exon 7 of […], the −786T→C variant in the promoter region, and the intron 4 polymorphism (VNTR). All of these variants have possible effects on the cardiovascular system and endothelial dysfunction. For this study, human umbilical vein endothelial cells (HUVECs) from 50 donors between 18 and 32 years of age were used.
For the analysis several analysis techniques were employed. First, the effect of genotype on NO and ONOO^− release was explored within the different concentrations of LA-419 (control, 1 μM, 5 μM), calculated as the average peak release (nmols/L) of NO, ONOO^−, and NO/ONOO^−. The effect of genotype on the net increase in NO, ONOO^−, and NO/ONOO^− for LA-419 (1 μM and 5 μM) as compared to control was also measured. In addition, an analysis was done on the effect of genotype on the % change in NO, ONOO^−, and NO/ONOO^− production for LA-419 (1 μM and 5 μM), calculated as:
% Change=[(avg. LA-419−avg. control)/(avg. control)]*100
Finally, an evaluation was undertaken concerning the effect of genotype on the production of NO, ONOO^−, and NO/ONOO^− as the fold difference of control for LA-419 (1 μM and 5 μM), calculated as:
Fold Difference=(avg. LA-419)/(avg. control)
Within each calculation technique the results were compared for statistical significance using a non-parametric ANOVA Kruskal-Wallace test or a non-parametric Mann-Whitney U test. Statistical significance was set at a p-value <0.05 in a two-tailed distribution. […]

[1] = Caucasians, exon 7 major allele homozygote
[2] = Caucasians, exon 7 minor allele carriers
[3] = exon 7 major allele homozygote, all races
[4] = exon 7 minor allele carriers, all races
[5] = HUVECs G894T + T-786C Combination of all genotypes other than G/G + T/T
[6] = HUVECs G894T + T-786C variant G/G + T/C
[7] = HUVECs G894T + T-786C variant G/G + T/T (Reference)
[8] = HUVECs G894T + T-786C variant G/T + C/C
[9] = HUVECs G894T + T-786C variant G/T + T/C
[10] = HUVECs G894T + T-786C variant G/T + T/T
[11] = HUVECs G894T + T-786C variant T/T + C/C
[12] = HUVECs G894T + T-786C variant T/T + T/C

## CC(=O)SC1COC2C(O[N+](=O)[O-])COC12 (stereo not drawn) [LA-419, S-(6-Nitro-oxi-hexahydro-furo[3,2-b]furan-3-1-il)thioacetate]
HUVECs Intron 4 variant b/a
  % Change ONOO− (mean ± sd): −19.70 (5.79) %
HUVECs Intron 4 variant b/b
  % Change NO (mean ± sd): 13.52 (6.80) %
  % Change NO/ONOO− (mean ± sd): 42.24 (17.73) %
  % Change ONOO− (mean ± sd): −19.19 (7.76) %
HUVECs Intron 4 variant c/c
  % Change NO (mean ± sd): 17.36 (0) %
  % Change NO/ONOO− (mean ± sd): 52.87 (0) %
  % Change ONOO− (mean ± sd): −22.99 (0) %
HUVECs T-786C variant C/C
  % Change NO (mean ± sd): 11.63 (5.99) %
  % Change NO/ONOO− (mean ± sd): 42.33 (13.21) %
  % Change ONOO− (mean ± sd): −21.03 (7.77) %
HUVECs T-786C variant T/C
  % Change NO (mean ± sd): 13.58 (6.82) %
  % Change NO/ONOO− (mean ± sd): 38.74 (13.67) %
  % Change ONOO− (mean ± sd): −17.73 (5.53) %
HUVECs T-786C variant T/T
  % Change NO (mean ± sd): 16.16 (5.97) %
  % Change NO/ONOO− (mean ± sd): 49.09 (17.76) %
  % Change ONOO− (mean ± sd): −20.98 (8.19) %
[1]
  Fold difference NO production: 1.19±0.07
  Fold difference NO/ONOO− ratio: 1.47±0.12
[2]
  Fold difference NO production: 1.11±0.05
  Fold difference NO/ONOO− ratio: 1.35±0.10
Caucasians, promoter major allele variant
  Fold difference NO production: 1.17±0.08
[3]
  Fold difference NO production: 1.16±0.06
  Fold difference NO/ONOO− ratio: 1.48±0.18
[4]
  Fold difference NO production: 1.13±0.06
  Fold difference NO/ONOO− ratio: 1.39±0.13
HUVEC donor Race Asian
  % Change Ratio, % Change NO/% Change ONOO− (mean ± sd): −0.50 (0)
HUVEC donor Race Black
  % Change Ratio, % Change NO/% Change ONOO− (mean ± sd): −0.79 (0.44)
HUVEC donor Race Not Reported
  % Change Ratio, % Change NO/% Change ONOO− (mean ± sd): −0.59 (0.08)
[5]
  Net increase over control NO (mean ± sd): 46.78 (22.38) nmols/L
  Net increase over control NO/ONOO− (mean ± sd): −0.87 (0.81)
  Net increase over control ONOO− (mean ± sd): −68.74 (26.87) nmols/L
  Peak release NO (mean ± sd): 398.12 (90.43) nmols/L
  Peak release NO/ONOO− (mean ± sd): 1.43 (0.54)
  Peak release ONOO− (mean ± sd): 304.95 (81.70) nmols/L
[6]
  Net increase over control NO (mean ± sd): 51.58 (25.77) nmols/L
  Net increase over control NO/ONOO− (mean ± sd): −0.78 (0.51)
  Net increase over control ONOO− (mean ± sd): −66.54 (26.77) nmols/L
  Peak release NO (mean ± sd): 397.25 (102.46) nmols/L
  Peak release NO/ONOO− (mean ± sd): 1.56 (0.60)
  Peak release ONOO− (mean ± sd): 277.33 (69.85) nmols/L
[7]
  Net increase over control NO (mean ± sd): 56.59 (19.21) nmols/L
  Net increase over control NO/ONOO− (mean ± sd): −0.88 (0.54)
  Net increase over control ONOO− (mean ± sd): −77.59 (31.16) nmols/L
  Peak release NO (mean ± sd): 399.67 (56.96) nmols/L
  Peak release NO/ONOO− (mean ± sd): 1.48 (0.48)
  Peak release ONOO− (mean ± sd): 293.93 (83.07) nmols/L
[8]
  Net increase over control NO (mean ± sd): 46.00 (0) nmols/L
  Net increase over control NO/ONOO− (mean ± sd): −1.01 (0)
  Net increase over control ONOO− (mean ± sd): −45.67 (0) nmols/L
  Peak release NO (mean ± sd): 434.33 (0) nmols/L
  Peak release NO/ONOO− (mean ± sd): 1.72 (0)
  Peak release ONOO− (mean ± sd): 252.67 (0) nmols/L
[9]
  Net increase over control NO (mean ± sd): 43.72 (19.86) nmols/L
  Net increase over control NO/ONOO− (mean ± sd): −0.83 (0.84)
  Net increase over control ONOO− (mean ± sd): −65.59 (20.60) nmols/L
  Peak release NO (mean ± sd): 387.90 (86.10) nmols/L
  Peak release NO/ONOO− (mean ± sd): 1.34 (0.54)
  Peak release ONOO− (mean ± sd): 318.33 (82.55) nmols/L
[10]
  Net increase over control NO (mean ± sd): 52.83 (20.89) nmols/L
  Net increase over control NO/ONOO− (mean ± sd): −1.29 (1.15)
  Net increase over control ONOO− (mean ± sd): −71.50 (46.74) nmols/L
  Peak release NO (mean ± sd): 433.58 (65.75) nmols/L
  Peak release NO/ONOO− (mean ± sd): 1.71 (0.21)
  Peak release ONOO− (mean ± sd): 252.92 (13.69) nmols/L
[11]
  Net increase over control NO (mean ± sd): 35.33 (20.27) nmols/L
  Net increase over control NO/ONOO− (mean ± sd): −0.36 (0.18)
  Net increase over control ONOO− (mean ± sd): −94.89 (10.87) nmols/L
  Peak release NO (mean ± sd): 348.78 (92.48) nmols/L
  Peak release NO/ONOO− (mean ± sd): 1.19 (0.80)
  Peak release ONOO− (mean ± sd): 345.56 (123.07) nmols/L
[12]
  Net increase over control NO (mean ± sd): 53.00 (50.91) nmols/L
  Net increase over control NO/ONOO− (mean ± sd): −1.41 (1.74)
  Net increase over control ONOO− (mean ± sd): −64.83 (44.08) nmols/L
  Peak release NO (mean ± sd): 453.00 (178.19) nmols/L
  Peak release NO/ONOO− (mean ± sd): 1.23 (0.75)
  Peak release ONOO− (mean ± sd): 397.67 (96.64) nmols/L
HUVECs G894T variant G/G
  % Change Ratio, % Change NO/% Change ONOO− (mean ± sd): −0.82 (0.40)
  Net increase over control NO (mean ± sd): 55.05 (21.03) nmols/L
  Net increase over control NO/ONOO− (mean ± sd): −0.85 (0.52)
  Net increase over control ONOO− (mean ± sd): −74.19 (29.80) nmols/L
  Peak release NO (mean ± sd): 398.92 (71.74) nmols/L
  Peak release NO/ONOO− (mean ± sd): 1.50 (0.51)
